Legend:
[1] = system: growth hormone secretion; conditions: cited from earlier work
[2] = adverse effects of continuous administration; type: in vivo
[3] = system: growth; conditions: normal rat, cited from earlier work
[4] = system: growth hormone secretion; assay: 14-day continuous intravenous infusion by mechanical pump, 24 hour growth hormone profile; type: in vivo, human; conditions: 10 ng/kg/min intravenous over 14 days, 4 subjects
Description: Growth hormone releasing factor was administered by mechanical pump which delivered a dose of 10 ng/kg/min by the intravenous route over 14 days in 4 subjects aged 26 to 31 years. The profile of growth hormone secretion was measured over 24 hours before the initiation of the infusion, on the fourteenth day of the infusion, and two weeks after stopping the infusion.

[5] = system: growth hormone secretion; assay: 6 hour infusion followed by insulin (hypoglycemia) stimulus; type: in vivo, human; conditions: insulin given at the end, compared to hypoglycemia after vehicle infusion
Description: (§1) In a most recent study the 6 hour infusion was repeated but insulin was given at the end of the infusion to provide an alternate stimulus (hypoglycemia) for growth hormone secretion compared to hypoglycemia after vehicle infusion. […] Next 24 hour infusions of growth hormone releasing factor were performed and the growth hormone and growth hormone releasing factor secretory profile of a patient were studied with ectopic growth hormone releasing factor secretion (Vance et al, J. Clin. Invest., 1985, 75, 1584-1590). In this patient growth hormone secretion was pulsatile despite continuously elevated immunoreactive growth hormone releasing factor levels. To determine if pulsatile growth hormone secretion is maintained in normal subjects, vehicle or growth hormone releasing factor-40, 2 ng/kg/min, was administered to six healthy young men for 24 hours and gave a supramaximal intravenous bolus dose of growth hormone releasing factor-40, 3 μg/kg after 23.5 hours of infusion.

[6] = system: growth hormone secretion; assay: 24 hour infusion in healthy young men with supramaximal bolus after 23.5 hours; type: in vivo, human; conditions: 2 ng/kg/min for 24 hours, six healthy young men
Description: as §1

[7] = system: growth hormone secretion; conditions: after 6 hours infusions of 1, 3.3 and 10 ng/kg/min; cited from earlier work

Row | Substance | release of growth hormone in response to supramaximal dose at end of infusion ([1]; end of the 6 or 24 hour infusion) | growth hormone secretion over the duration of the infusion ([1]; short-term administration (6-24 hours)) | blood pressure, pulse rate, body temperature [2] | side effects [2] | growth, continuous administration ([3]; continuous administration) | growth, pulsatile administration ([3]; pulsatile administration) | response to a supramaximal dose of growth hormone releasing factor [4] | growth hormone secretion ([4]; measured on fourteenth day of infusion) | serum Insulin Growth Factor-1 (IGF-1) level ([4]; marker of biological activity of growth hormone) | desensitization to growth hormone releasing factor [5] | effect on naturally occuring growth hormone pulses [6] | growth hormone secretion compared to vehicle infusion [6] | pulsatile growth hormone secretion during infusion [6] | growth hormone response to supramaximal bolus at end of infusion [7]
1 | growth hormone releasing factor | reduced release of growth hormone | stimulates growth hormone secretion intermittently | No changes in blood pressure, pulse rate, or body temperature | no side effects | does not | accelerates growth | normal or accentuated responses | augmented growth hormone secretion | rise in serum Insulin Growth Factor-1 (IGF-1) level | partial homologous desensitization | – | – | – | –
2 | growth hormone releasing factor-40 (YADAIFTNSYRKVLGQLSARKLLQDIMSRQQGESNQERGA; Somatoliberin; UniProt P01286 32-71, looked up, fragment) [40 amino acid form of human growth hormone releasing factor] | – | – | – | – | – | – | – | – | – | – | augmentation of naturally occuring growth hormone pulses | greater growth hormone secretion than did vehicle infusion | pulsatile growth hormone secretion was maintained | inversely related to the 6 hour infusion dose
